Laboratory results from patent US7026469B2, “Compositions and methods of double-targeting virus infections and cancer cells” (Wake Forest University School of Medicine, priority 2000, dated 2006).
pEC50: −log10 of the molar value. Several values for one entry are separate records, joined by “and”; a condition that tells them apart may be missing. Equal entries are not always repeated. Where two headings read alike, the source gives them in different places.

How the values were obtained:
HIV-1 = HIV-1 syncytial plaque assay in CEM-SS cells; type: cell-based
Protocol: (§1) The inhibitory effects of PC lipids, non-PC lipid-AZT conjugates, and double-targeting PC lipid-AZT conjugate compounds of the invention on replication of HIV-1 virus in cells was examined using the plaque assay procedure described in Kucera et al. (1990, AIDS Research and Human Retroviruses, 6:491). CEM-SS cells were seeded at 50,000 cells per milliliter in RPMI growth medium as a monolayer in 96-well dishes, inoculated with 50 to 100 plaque forming units of HIV-1 and overlaid with serial dilutions of either PC lipid, non-PC lipid-AZT conjugate, or PC-lipid-AZT conjugate in RPMI-1640 growth medium supplemented with 10% fetal bovine serum. The structures of the tested compounds are described in Table 1. AZT and PC lipids were used as positive controls. […] The cytotoxicity of PC lipids, non-PC lipid-AZT conjugates and double targeting PC lipid-AZT conjugates was assessed using the procedure described in Kucera et al. (1990, AIDS Res. And Human Retrovir., 6:496, and 1998, Antiviral Chemistry and Chemotherapy, 9:160). [drawing 16]
In the plaque assay, HIV-1 syncytial plaques are seen as large, multicellular foci (10 to 25 nuclei/syncytium) that appear either brown and granular or clear. Because the number of HIV-1 syncytial plaques was correlated with reverse transcriptase (RT) and p24 core antigen activity in the HIV-1 infected cell overlay fluids, the syncytial plaque assay could be used to quantify the amount of infectious virus. Reverse transcriptase activity was assayed according to the procedure described by Poeisz et al. (1980, Proc. Natl. Acad. Sci. U.S.A. 77:7415). The activity of p24 core antigen induced by HIV-1 infection of CEM-SS cells was measured spectrophotometrically using the commercial Coulter enzyme immunoassay (EIA).

[1] = Cytotoxicity (TC50) of the compounds tested for anti-HIV-1 activity; type: cell-based, human; conditions: human, CEM-SS cells
Protocol: as §1

[2] = system: AZT-resistant clinical isolates of HIV-1; experiment: microbe, parasite or virus in culture; type: cell-based; conditions: for pEC50: mean of 2 to 4 independent tests
Protocol: as §1
Evaluation of the clinical isolates to the compounds was performed using the plaque assay procedure described herein in Example 1. The matched pairs of clinical isolates were obtained through the AIDS Research and Reference Reagent Program, NIH, Bethesda, Md.

[3] = system: HIV-1 persistently infected H9IIIB cells; experiment: Induction of defective HIV-1 in persistently infected H9IIIB cells (RT activity after infecting fresh CEM-SS cells); type: cell-based; conditions: RT activity in CEM-SS overlay medium after 7 or 9 days; H9IIIB cells treated with 1.0 μM compound for 14 or 11 days
Protocol: HIV-1 persistently infected H9IIIB cells were washed twice to remove extracellular HIV-1, resuspended in fresh growth medium with or without 1.0 μM of compound for a total of 14 days. During the treatment period, the cells were subcultured 1:3 three times a week. In addition, on days 3, 7 and 11, the cells were pelleted to remove extracellular HIV-1 before subculture in fresh growth medium with or without the compound. After 14 or 11 days of treatment, the virus was pelleted (100,000×g, 1 hr, 4 C.) from the overlay medium to remove free compound, resuspended in fresh medium without compound and assayed for RT activity. The virus suspension was normalized to 500,000 RT DPM and used to infect fresh CEM-SS cells. The infected CEM-SS cells were incubated for a total of 7 or 9 days, and the overlay medium was harvested and assayed for induction of RT activity. The % inhibition of RT activity was used as a measure of defective virus formation during the treatment period.

[4] = Oral administration of phospholipid-AZT conjugate in rodents (distribution, half-life); design: species or system rodents (mice); conditions: mouse, in vivo; in rodents; units given within the value; read-out: half-life of AZT alone
Friend leukemia virus = conditions: INK-11 compared with AZT alone; cited from earlier work
[5] = system: herpes simplex virus type 2; experiment: Herpes simplex virus type 2 plaque inhibition in Vero cells; type: cell-based; conditions: acyclovir in replicate tests; read-out: EC50 against herpes simplex virus type 2
Protocol: Proof-of-concept of the antiviral activity of the double-targeting PC lipid-AZT conjugate compounds of the invention with respect to herpes simplex virus type 2 was evaluated and compared with that of PC lipid alone and with acyclovir (positive controls). Serial dilutions of PC lipid, PC lipid-AZT conjugate compound, or acyclovir were evaluated for inhibition of the formation of herpes simplex virus type 2 plaques in Vero cells and EC50 values were calculated from the results obtained. Briefly, the tests for anti-herpes simplex virus (HSV) activity and cytotoxicity of the compounds were performed by seeding 8×10^4 monkey kidney cells (Vero) per ml of D-MEM with 10% fetal bovine serum (FBS) in each well of a 12-well dish. The cultures were incubated at 37° C. to form a complete monolayer. To measure anti-HSV activity and effective concentration50 (EC50) each cell monolayer was infected with HSV diluted in PBS-A containing about 100 plaque forming units (PFU) per 0.1 ml. After virus attachment (1 hr., 37° C.) the infected monolayers were overlaid with E-MEM containing 2% FBS and 0.5% methyl cellulose with or without added serial concentrations of test compound. […] The EC50 values were calculated using a computer generated program.

[6] = Cytotoxicity in Vero cell monolayers (cell morphology); type: cell-based, monkey; conditions: monkey, Vero cell monolayers (monkey kidney cells), 48 hours at 37° C., lowest concentration changing morphology in at least 25% of the cells, read-out: Cytotoxicity (TC50)
Protocol: To measure cytotoxicity of the compounds, the cell monolayers (described above) were treated with a serial concentration of test compound for 48 hours at 37° C. and visually examined after crystal violet staining by light microscopy for changes in cell morphology (cell rounding, shrinking, detachment) compared to an untreated control culture.

| Compound | Differential Selectivity (HIV-1; DS = ratio of TC50 for cytotoxicity to EC50 for anti-HIV activity) | pEC50 (HIV-1; Human immunodeficiency virus 1, CEM-SS, 120 h, read-out: Anti-HIV-1 Activity (EC50)) | CC50 [1] [µM] | pEC50 ([2]; Human immunodeficiency virus 1, read-out: EC50 Pre-AZT G-762, pre-AZT isolate, patient code G-762) | pEC50 ([2]; Human immunodeficiency virus 1, read-out: EC50 Pre-AZT H112-2, pre-AZT isolate, patient code H112-2) | Fold-Increase (G-762 to G-691) ([2]; post-AZT G-691 versus pre-AZT G-762) | fold increase in AZT-resistance among HIV-1 clinical isolates ([2]; text summary over both isolate pairs) | DPM-Bkg [3] | half-life [4] [min] | suppression against RT activity (Friend leukemia virus) [%] | pEC50 [5] | CC50 at 48 h [6] [µM] |
| --- | --- | --- | --- | --- | --- | --- | --- | --- | --- | --- | --- | --- |
| Cc1cn([C@H]2C[C@H](N=[N+]=[N-])[C@@H](CO)O2)c(=O)[nH]c1=O [AZT, 3′-azido-3′-deoxythymidine, reference compound] | 411 | 8.05 | 3.7 | 9.00 | 8.70 | 165 | 680- to 1,100 fold | 5416 DPM and 6573 DPM | 30 to 60 | 98 |  |  |
| Nc1nc2c(ncn2COCCO)c(=O)[nH]1 [Acyclovir, reference compound] |  |  |  |  |  |  |  |  |  |  | 4.90 and 4.84 and 5.18 | > 20 |
